Measurements as given in patent US20160060235A1, “Therapeutic Agent for Type 2 Diabetes” (NATIONAL UNIVERSITY CORPORATION KUMAMOTO UNIVERSITY, priority 2013, published 2016).

Experiments:
[1] = tested on: E. coli harboring pACYCDuet-1-Phe; test: Primary screening: dual luciferase assay of translation accuracy (frameshift mistranslation reporter); format: cell-based; conditions: versus DMSO control; for relative translation accuracy with the translation accuracy of the control defined as 1: compound at final concentration of 10 μM, shake culture 1 hour; for improvement of translation accuracy as compared with the control (in words): existing therapeutic agents for diabetes, 10 μM
Text: The vector map of the prepared plasmid pACYCDuet-1-Phe (SEQ ID NO: 1) is shown in the left diagram of FIG. 1. The phenylalanine codon TTT was designed as NNN. When translation takes place according to the normal reading frame, the stop codon TAA appears immediately after TTT so that the sequence is not translated into firefly luciferase. On the other hand, if mistranslation occurs in TTT so as to skip one T, the stop codon is circumvented so that the sequence is correctly translated into firefly luciferase. This means that the higher the accuracy of translation is, the lower the fluorescence intensity of firefly luciferase is.
Renilla luciferase gene is also cloned into this plasmid as a control.
The E. coli harboring pACYCDuet-1-Phe was cultured overnight at 37° C. using 100 mL of a culture medium. After confirmation that OD550 reached 0.4 to 1, 1 mL of the culture medium was dispensed, and each low-molecular compound was added thereto at a final concentration of 10 μM. After shake culture for 1 hour, the E. coli was recovered and lysed by suspension in 10 mM Tris-HCl (pH 7.4), 1 mM magnesium chloride, and 0.1 mg/mL lysozyme (manufactured by Wako Pure Chemical Industries, Ltd.).
The activity of the firefly luciferase and the Renilla luciferase was measured using Dual-Luciferase Reporter Assay System (manufactured by Promega Corp.). To 5 μL of the E. coli lysate, 50 μL of an assay solution for the firefly luciferase was added for the measurement. Then, 50 μL of an assay solution for the Renilla luciferase was added thereto for the measurement. An E. coli lysate supplemented only with DMSO was prepared as a control.
The luminescence intensity of the firefly luciferase was corrected against that of the Renilla luciferase by use of the equation given below. This series of experimental approaches is plotted in FIG. 1.
Relative luminescence intensity=Firefly luciferase/Renilla luciferase
Relative translation accuracy=Relative luminescence intensity (from the addition of only DMSO)/Relative luminescence intensity (in the presence of the compound)

[2] = tested on: islet of Langerhans isolated from a pancreatic β cell-specific Cdkal1-deficient mouse; test: Secondary screening: insulin secretion experiment by glucose stimulation; format: cell-based; design: insulin secretion under low-concentration (2.8 mM) and high-concentration (16.7 mM) glucose stimulation / concentration of insulin secreted into the Ringer solution: unit of the concentration uncertain
Text: The islet of Langerhans was isolated from a pancreatic β cell-specific Cdkal1-deficient mouse (see non-patent document 11) according to the literature (Gotoh M., et al., Transplantation, 1987, 43 (5), p. 725-730). The chest of the mouse was opened under ether anesthesia, and the common bile duct was peeled off. The pancreas swollen by the gradual injection of a collagenase solution (320 U/mL, manufactured by Sigma-Aldrich Corp.) was excised. The pancreas containing collagenase was digested for 30 minutes in a water bath of 37° C. and then dispersed with a pipette. The islet of Langerhans was isolated using a concentration gradient of a Ficoll solution (manufactured by Amersham Pharmacia Biotech Inc.). The islet of Langerhans was incubated for 30 minutes while kept at 37° C. in a Ringer solution (119 mM sodium chloride, 4.74 mM potassium chloride, 1.19 mM monosodium dihydrogen phosphate, 25 mM sodium bicarbonate, 10 mM HEPES, 2.54 mM calcium chloride, 1.19 mM magnesium chloride, and 0.2% BSA) saturated with a mixed gas of 95% O2 and 5% CO2.
Each low-molecular compound found positive in the primary screening was dissolved in DMSO, and this solution was added at a final concentration of 10 mM to a Ringer solution containing glucose to prepare a Ringer solution. A Ringer solution supplemented only with DMSO was prepared as a control.
The isolated mouse islet of Langerhans was first cultured for 30 minutes in a Ringer solution containing a low concentration (2.8 mM) of glucose. Then, the Ringer solution was replaced with a Ringer solution containing the low-molecular compound and the low concentration of glucose. After 30 minutes, the Ringer solution was recovered, and a Ringer solution containing the low-molecular compound and a high concentration (16.7 mM) of glucose was subsequently added thereto. After 30 minutes, the Ringer solution was recovered. The amount of insulin released into the Ringer solution was detected using an insulin detection kit (Libs Insulin-Mouse (S type), manufactured by Shibayagi Co., Ltd) according to the protocol of the kit.

[3] = tested on: pancreatic β cell-specific Cdkal1-deficient mouse; test: Glucose tolerance after long-term (14 days) administration; format: in vivo; conditions: 1 mg/kg transabdominally once a day over 14 days, glucose 1 g/kg 36 hours after last dose; versus DMSO administration group
Method: Each low-molecular compound found positive in the screening was transabdominally injected once a day over 14 days at a dose of 1 mg/kg to a pancreatic β cell-specific Cdkal1-deficient mouse. A Cdkal1-deficient mouse was prepared as a control by the injection of saline containing DMSO. Finally, glucose was transabdominally injected at a dose of 1 g/kg to all of the mice 36 hours after the administration of the low-molecular compound. Blood was collected (5 μL) from the tail vein every 15 minutes from immediately after the administration of glucose. The blood glucose level in the mouse blood was measured using Accu-Chek AVIVA Nano (manufactured by F. Hoffmann-La Roche, Ltd.). The statistical test was conducted by repeated measure of two-way ANOVA.

[4] = tested on: pancreatic β cell-specific Cdkal1-deficient mouse; test: Tertiary screening: glucose tolerance after single administration; format: in vivo; conditions: 1 mg/kg transabdominally, glucose 1 g/kg after 30 minutes, versus saline administration group
Method: A pancreatic β cell-specific Cdkal1-deficient mouse and a wild-type mouse were each fasted overnight. Then, eperisone was transabdominally injected at a dose of 1 mg/kg to each mouse. Each control individual was prepared by the transabdominal injection of saline to each of a pancreatic β cell-specific Cdkal1-deficient mouse and a wild-type mouse. After 30 minutes, glucose was transabdominally injected at a dose of 1 g/kg to all of these mice. Blood was collected (5 μL) every 15 minutes from immediately after the administration of glucose. The blood glucose level in the mouse blood was measured using Accu-Chek AVIVA Nano (manufactured by F. Hoffmann-La Roche, Ltd.). The statistical test was conducted by repeated measure of two-way ANOVA.

## elvitegravir
[1]
  relative translation accuracy with the translation accuracy of the control defined as 1: approximately 8 times

## CN(C)C(=N)N=C(N)N [metformin]
[1]
  improvement of translation accuracy as compared with the control (in words): none of the existing therapeutic agents for diabetes were shown to significantly improve translation accuracy

## COc1ccc(Cl)cc1C(=O)NCCc1ccc(S(=O)(=O)NC(=O)NC2CCCCC2)cc1 [glibenclamide]
[1]
  improvement of translation accuracy as compared with the control (in words): none of the existing therapeutic agents for diabetes were shown to significantly improve translation accuracy

## CNCCC(Oc1ccc(C(F)(F)F)cc1)c1ccccc1 (stereo not shown) [fluoxetine]
[2]; low-concentration (2.8 mM) glucose stimulation, compound at final concentration of 10 (unit uncertain)
  concentration of insulin secreted into the Ringer solution: significantly improve insulin secretion
[3]
  blood glucose level after glucose administration: significantly decreased blood glucose level
[1]
  relative translation accuracy with the translation accuracy of the control defined as 1: approximately 1.5 times

## CCc1ccc(C(=O)C(C)CN2CCCCC2)cc1 (stereo not shown) [eperisone]
[2]; compound at final concentration of 10 (unit uncertain) in Ringer solution, 30 minutes each
  insulin secretion under low-concentration (2.8 mM) and high-concentration (16.7 mM) glucose stimulation: accelerate insulin secretion only under the high-concentration glucose stimulation
[2]; high-concentration (16.7 mM) glucose stimulation, glibenclamide defined as 1
  relative amount of insulin secreted compared with glibenclamide: accelerate insulin secretion more highly than glibenclamide
[4]
  blood glucose level after glucose administration: significantly decreased blood glucose level
[3]
  blood glucose level after glucose administration: significantly decreased blood glucose level
